Five compounds from patent publication US9018171B2, “Uses of an immunomodulatory protein (GMI) from Ganoderma microsporum” (Mycomagic Biotechnology Co., Ltd., priority 2010, dated 2015) can be followed below.

The test system of experiment [1] is CaLu-1 cells. The experiment can be described thus: MTT assay, cisplatin and GMI co-treatment. The class given is cell-based. The note with it: CaLu-1, 48 h, read-out: cisplatin alone concentration needed to achieve about 50% cell viability. The protocol: CaLu-1 cells were co-treated with various concentrations of cisplatin (0, 2.5, 5, 10, 20 μM) and GMI from Ganoderma microsporum (0, 4, 8 and 16 μg/mL) for 48 h followed by MTT assay to estimate cell viability.
MTT assay was used to determine the effect of GMI and cisplatin on the proliferation of Calu-1 cells. In metabolically active cells, MTT (Thiazolyl Blue Tetrazolium Bromide) (Sigma) was reduced by dehydrogenase enzyme into an formazan product. Absorbance was measured directly at 570 nm from 96-well assay plates after adding 100 μl DMSO. The quantity of formazan was considered to be directly proportional to the number of viable cells in the culture.
Briefly, the cells (5×10^3) were incubated on 96-well plates containing 200 μl of growth medium. After 24 h incubation, the medium was carefully removed and 100 μl of fresh medium containing various concentrations of GMI and cisplatin were added to the wells. The cells were treated with GMI and cisplatin continuously for 48 h with 0, 4, 8, 16 μg/ml for GMI and with 0, 2.5, 5 and 10 μM for cisplatin. […] The absorbance was analyzed on a VERSAmax microplate reader at 570 nm. Absorbance values were presented as the mean±SE of 3 replicates for each treatment. […] Absorbance of untreated cells was considered 100%. […]
On the technique in general: Formazan colour is commonly taken as a measure of viable cells.

For experiment [2], the system named is A549/D16. The experiment can be described thus: MTT assay, drug sensitivity. The class given is cell-based, human. The note with it: for value in parentheses after IC50 (ratio to parental A549): A549/D16; for IC50: Homo sapiens, A549/D16, 48 h, MTT. The protocol: (§1) A549 cell line and resistant A549 cell sublines (A549/D16, A549/D32 and A549/V16) (5000 cells/well of 96-well plate) were treated with increased doses concentrations (μM) of GMI from Ganoderma microsporum, docetaxel, vincristine and doxorubicin for 48 h, respectively. Cell viability was measured by MTT assay and the results are presented as the calculated cell growth inhibitory ratio. Experiments were repeated three times.

The subject of experiment [3] is A549/D32. As to the kind of experiment: MTT assay, drug sensitivity. Format: cell-based, human. To be noted: for value in parentheses after IC50 (ratio to parental A549): A549/D32; for IC50: Homo sapiens, A549/D32, 48 h, MTT. The protocol:
as §1

Experiment [4] deals with A549/V16. As to the kind of experiment: MTT assay, drug sensitivity. Format: cell-based, human. The note with it: for value in parentheses after IC50 (ratio to parental A549): A549/V16; for IC50: Homo sapiens, A549/V16, 48 h, MTT. The protocol:
as §1

The subject of experiment [5] is A549. The experiment can be described thus: MTT assay, drug sensitivity. The class given is cell-based, human. To be noted: for IC50: Homo sapiens, A549, 48 h, MTT. The protocol:
as §1

Experiment [6] has as its system EGFR. As to the kind of experiment: Western blotting, EGF-induced phosphorylation. The note with it: A549 cells, pretreated 8 h, EGF 10 minutes. Format: cell-based, human. The protocol:
A549 cells (5×10^5 cells/60 mm) were pretreated with various concentrations of GMI (4, 16 μg/ml) or AG1478 (EGFR inhibitors) for 8 hours prior to incubation for 10 minutes with EGF (as indicated). Cell lysates were subject to immunoblotting with phospho-specific EGFR (Y1068) (A and B), anti-phospho-AKT (A), anti-AKT (A), anti-phospho-GSK3β (A) or anti-phospho-STAT3 antibodies (B). Protein loading was determined by Western blotting against β-actin (A and B).
Total cell lysates were prepared in RIPA buffer (100 μl in 60 mm in dish). Fifty μg of lysate were loaded onto an 8% polyacrylamide gel and analyzed by SDS gel electrophoresis. After transfer to PVDF (Amersham), blots were blocked with 5% skim milk in TBS (10 mM Tris-CL pH7.5, 150 mM NaCl) containing 0.2% Tween-20. Blots were probed with antibodies (at their recommended dilutions) in 5% skim milk in TBS overnight at 4° C. Following detection with the appropriate horseradish-peroxidase conjugated secondary antibody (Cell Signaling), blots were developed by enhanced chemiluminescence according to the manufacturer's directions (Perkin Elmer Life Sciences). All experiments were performed in duplicate.
To assess whether GMI mediates and/or inhibits phosphorylation of Akt and Stat3, the invention investigated the effect of GMI on the phosphorylation status of Akt and Stat3 in A549 cells treated with various concentrations of GMI for 8 h.

Consider `N.N.[Cl][Pt][Cl]` [cisplatin], for which, in experiment [1], the IC50 is approximately 10 µM.
Consider `CC(=O)O[C@@]12CO[C@@H]1C[C@H](O)[C@@]1(C)C(=O)[C@H](O)C3=C(C)[C@@H](OC(=O)[C@H](O)[C@@H](NC(=O)OC(C)(C)C)c4ccccc4)C[C@@](O)([C@@H](OC(=O)c4ccccc4)[C@H]21)C3(C)C` [Docetaxel], for which the “value in parentheses after IC50 (ratio to parental A549)” value (shortened to “value … (ratio to parental A549)”) was 114.1 in experiment [2], 318.0 in experiment [3], 121.9 in experiment [4] and 1.0 in experiment [5]. Also, the IC50 in experiment [2] was 0.73 ± 0.0566 µM; in experiment [3], 2.04 ± 0.955 µM; in experiment [4] it was 0.78 ± 0.0513 µM; in experiment [5] it was 0.0064 ± 0.0001 µM.
On to `COc1cc2ncnc(Nc3cccc(Cl)c3)c2cc1OC` [AG1478, reference compound], for which the “EGF-induced activation (phosphorylation) of EGFR” value in experiment [6] was “able to inhibit EGFR phosphorylation”.
As to `CC[C@]1(O)C[C@H]2CN(CCc3c([nH]c4ccccc34)[C@@](C(=O)OC)(c3cc4c(cc3OC)N(C=O)[C@H]3[C@@](O)(C(=O)OC)[C@H](OC(C)=O)[C@]5(CC)C=CCN6CC[C@]43[C@@H]65)C2)C1` [Vincristine], the “value … (ratio to parental A549)” value is 51.9 in experiment [2], 49.2 in experiment [3], 51.2 in experiment [4] and 1.0 in experiment [5]. Moreover, the IC50 was 0.77 ± 0.0566 µM in experiment [2], 0.73 ± 0.0283 µM in experiment [3], 0.76 ± 0.0924 µM in experiment [4] and 0.0149 ± 0.0001 µM in experiment [5].
Consider `COc1cccc2c1C(=O)c1c(O)c3c(c(O)c1C2=O)C[C@@](O)(C(=O)CO)C[C@@H]3O[C@H]1C[C@H](N)[C@H](O)[C@H](C)O1` [Doxorubicin], for which the “value … (ratio to parental A549)” value is listed as 15.4 in experiment [2], 34.6 in experiment [3], 6.9 in experiment [4] and 1.0 in experiment [5]. The IC50 in experiment [2] was 3.42 ± 0.152 µM; in experiment [3] it was 7.69 ± 0.148 µM; in experiment [4], 1.53 ± 0.0808 µM; in experiment [5] it was 0.223 ± 0.0232 µM.
